Reference: US8153693B2, “Compounds for the selective treatment of the intestinal immuno-inflammatory component of the celiac disease” (Giuliani International Limited, priority 2007, dated 2012)

Assays:
Type in all cases: cell-based, human
TFN-alpha = test: Gene expression (mRNA) by RT-PCR in cultured duodenal biopsies of celiac patients: TFN-alpha; conditions: PT medium with 5-ASA versus PT medium, 37° C., 48 h; optical density of bands
TNF = test: Cytokine assay (ELISA) in culture liquids of duodenal biopsy organ cultures: TNF; conditions: for TNF, PT + 5ASA C, Mean / TNF, PT + 5ASA C, Median: peptic-tryptic digest of gliadin (PT)
Description: (§1) 3 groups of subjects were evaluated. The first (atrophic) group included 29 subjects with serum tests positive to antiendomysium and anti-transglutaminase antibodies, with a neo-diagnosis of celiac disease and gluten-containing diet. The second (Remission) group included 17 celiac disease subjects in clinical remission and gluten-free diet for at least 6 months. The third (Healthy) group included subjects not suffering from the celiac disease but suffering from inflammation of the gastro-enteric tract. […] The biopsies were washed in saline for two minutes at least three times. […] Three different amounts of medium are shared for the ELISA assay of Th1 and Th2 cytokines released in culture media.

IFN = test: Cytokine assay (ELISA) in culture liquids of duodenal biopsy organ cultures, 5-ASA 1.5-8.0 mg per ml, 4 h to 72 h: IFN; conditions: for IFN, PT + 5ASA C, Mean / IFN, PT + 5ASA C, Median: peptic-tryptic digest of gliadin (PT)
Description: as §1

IFN-gamma = test: Gene expression (mRNA) by RT-PCR in cultured duodenal biopsies of celiac patients: IFN-gamma; conditions: PT medium with 5-ASA versus PT medium, 37° C., 48 h; optical density of bands
IL-2 = test: Cytokine assay (ELISA) in culture liquids of duodenal biopsy organ cultures: IL-2; conditions: Atrophic population, N 15
Description: as §1

[1] = Atrophic population, N 21, Wilcoxon p = N.S.
[2] = Positive control population, N 7
[3] = Positive control population, N 7, Wilcoxon p = N.S.
[4] = Remission population, N 15, Wilcoxon p = N.S.
[5] = Atrophic population, N 22, Wilcoxon p = 0.05
[6] = Atrophic population, N 22, Wilcoxon p = 0.08
[7] = Remission population, N 15, Wilcoxon p = 0.022

## Nc1ccc(O)c(C(=O)O)c1 [Compound 5ASA, mesalazine]
TFN-alpha
  gene expression (mRNA) of TFN-alpha: well reduced
TNF; Atrophic population, N 21
  TNF, Medium + 5ASA C, Mean: 0.472
  TNF, Medium + 5ASA C, Median: 0.204
  TNF, PT + 5ASA C, Mean: 0.414
  TNF, PT + 5ASA C, Median: 0.120
TNF; Atrophic population, N 21, Wilcoxon p < 0.0001
  TNF, Difference PT C/PT + 5ASA C, Median: 0.0580
TNF; [1]
  TNF, Difference Medium C/Medium + 5ASA C, Mean: 0.0048
  TNF, Difference Medium C/Medium + 5ASA C, Median: 0.0150
TNF; [2]
  TNF, Medium + 5ASA C, Mean: 0.259
  TNF, Medium + 5ASA C, Median: 0.229
  TNF, PT + 5ASA C, Mean: 0.291
TNF; [3]
  TNF, Difference Medium C/Medium + 5ASA C, Mean: 0.005
  TNF, Difference Medium C/Medium + 5ASA C, Median: 0.0040
  TNF, Difference PT C/PT + 5ASA C, Mean: 0.0226
  TNF, Difference PT C/PT + 5ASA C, Median: 0.0250
TNF; Remission population, N 15
  TNF, Medium + 5ASA C, Mean: 0.894
  TNF, Medium + 5ASA C, Median: 0.571
  TNF, PT + 5ASA C, Mean: 0.305
  TNF, PT + 5ASA C, Median: 0.545
TNF; Remission population, N 15, Wilcoxon p = 0.005
  TNF, Difference PT C/PT + 5ASA C, Median: 0.221
TNF; [4]
  TNF, Difference Medium C/Medium + 5ASA C, Mean: 0.0541
  TNF, Difference Medium C/Medium + 5ASA C, Median: 0.0790
IFN; [5]
  IFN, Difference PT C/PT + 5ASA C, Mean: 0.0657
  IFN, Difference PT C/PT + 5ASA C, Median: 0.0505
IFN; [6]
  IFN, Difference Medium C/Medium + 5ASA C, Mean: 0.0601
  IFN, Difference Medium C/Medium + 5ASA C, Median: 0.0260
IFN; Atrophic population, N 22
  IFN, PT + 5ASA C, Mean: 0.145
  IFN, PT + 5ASA C, Median: 0.0545
IFN; [2]
  IFN, Medium + 5ASA C, Mean: 0.149
  IFN, Medium + 5ASA C, Median: 0.140
  IFN, PT + 5ASA C, Mean: 0.116
  IFN, PT + 5ASA C, Median: 0.121
IFN; [3]
  IFN, Difference Medium C/Medium + 5ASA C, Mean: 0.004
  IFN, Difference Medium C/Medium + 5ASA C, Median: 0.029
  IFN, Difference PT C/PT + 5ASA C, Mean: 0.0247
  IFN, Difference PT C/PT + 5ASA C, Median: 0.0090
IFN; Remission population, N 15
  IFN, Medium + 5ASA C, Mean: 0.201
  IFN, Medium + 5ASA C, Median: 0.208
  IFN, PT + 5ASA C, Mean: 0.153
  IFN, PT + 5ASA C, Median: 0.0960
IFN; [7]
  IFN, Difference PT C/PT + 5ASA C, Mean: 0.101
  IFN, Difference PT C/PT + 5ASA C, Median: 0.0210
IFN; [4]
  IFN, Difference Medium C/Medium + 5ASA C, Mean: 0.0383
  IFN, Difference Medium C/Medium + 5ASA C, Median: 0.0500
IFN-gamma
  gene expression (mRNA) of IFN-gamma: well reduced
IL-2
  IL-2, Medium + 5ASA C, Mean: 0.119
  IL-2, Medium + 5ASA C, Median: 0.0910
IL-2; Wilcoxon p = 0.012
  IL-2, Difference PT C/PT + 5ASA C, Mean: 0.0270
  IL-2, Difference PT C/PT + 5ASA C, Median: 0.0410
